In patent publication US8309528B2, “Two pore channels as regulators of proliferation in cancer” (The Trustees of Columbia University in the City of New York, priority 2006, dated 2012):

How the values were obtained:
[1] = target: T1, human TREK-1 (Homo sapiens, UniProt O95069); assay: Patch clamp of TREK-1 current in CHO cells transfected with human TREK-1; format: cell-based; settings: CHO cells heterologously expressing human TREK-1; ramp protocol -130 mV to +40 mV in 6 s
T1 construct: expressed in transfected cells; host or cells: CHO cells
T1 sequence (O95069 1-426): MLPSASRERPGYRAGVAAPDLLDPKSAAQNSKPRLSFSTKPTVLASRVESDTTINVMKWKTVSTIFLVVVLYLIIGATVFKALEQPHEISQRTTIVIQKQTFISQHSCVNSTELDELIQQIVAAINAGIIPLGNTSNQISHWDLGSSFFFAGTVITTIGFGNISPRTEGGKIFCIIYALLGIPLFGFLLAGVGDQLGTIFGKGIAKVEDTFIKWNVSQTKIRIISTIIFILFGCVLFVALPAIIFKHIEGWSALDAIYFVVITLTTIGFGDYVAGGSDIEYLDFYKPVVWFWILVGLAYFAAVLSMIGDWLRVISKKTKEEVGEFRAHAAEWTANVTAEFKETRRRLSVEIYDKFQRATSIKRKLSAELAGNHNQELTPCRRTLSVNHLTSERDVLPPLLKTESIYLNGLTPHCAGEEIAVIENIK
Procedure: (§1) FIG. 7. […] CHO cells were transfected with a plasmid encoding human TREK-1 and the current was studied by patch clamp. The current-voltage relation was determined using a ramp protocol that went from −130 mV to +40 mV in 6 s (after correction for the junction potential). Current was greater in the presence of meclofenamate. This is typical of 7 cells.
as §1, with “8.” for “7.”, “less” for “greater”, “trifluoperazine.” for “meclofenamate.”, “3” for “7”
(§2) CHO cells were transfected with a plasmid encoding human TREK-1 and the current was studied by patch clamp. The current-voltage relation was determined using a ramp protocol that went from −130 mV to +40 mV in 6 s (after correction for the junction potential). Current was greater in the presence of meclofenamate. This is typical of 7 cells.
as §2, with “less” for “greater”, “trifluoperazine.” for “meclofenamate.”, “3” for “7”

[2] = test system: normal prostate epithelial cells (NPE) expressing TREK-1; assay: MTT proliferation assay of normal prostate epithelial cells infected with TREK-1 adenovirus; format: cell-based; settings: sipatrigine 10 μM; compared with NPE/TREK-1 and other groups; five paired experiments
Procedure: FIG. 3. Dominant-negative TREK-1 reduces proliferation of PC-3 cells. PC-3 cells were transfected with either dn-TREK (or a control vector (PEGFP) using GeneJammer (Stratagene) under standard conditions. Proliferation of these cells was measured using the MTT assay after the cells were plated at 1×10^5 cells/well in 96 well plates. Data are presented as the mean ±SEM of five experiments. * p<0.05 vs control and EGFP
FIG. 5. Expression of TREK-1 increases proliferation of normal prostate epithelial cells (NPE). Normal prostate epithelial cell cultures were obtained from Clonetics and infected with a TREK-1-containing adenovirus. Some virally infected cells were also treated with sipatrigine (10 μM), a TREK-1 blocker. Cell proliferation was assessed using the MTT assay as described in FIG. 3.
Normal prostate epithelial cell cultures were obtained from Clonetics and infected with a TREK-1-containing adenovirus. Some virally infected cells were also treated with sipatrigine (10 μM), a TREK-1 blocker. Cell proliferation was assessed using the MTT assay as described in FIG. 3.

| SMILES | Effect on TREK-1 current [1] | Cell proliferation (MTT) of TREK-1-infected NPE [2] |
| --- | --- | --- |
| Cc1ccc(Cl)c(Nc2ccccc2C(=O)O)c1Cl [Meclofenamate, Meclofenamic acid] | activates TREK-1 current | – |
| CN1CCN(CCCN2c3ccccc3Sc3ccc(C(F)(F)F)cc32)CC1 [Trifluoperazine] | inhibits TREK-1 current | – |
| CN1CCN(c2ncc(-c3cc(Cl)cc(Cl)c3Cl)c(N)n2)CC1 [sipatrigine] | – | no other groups were different |
